“And” between values parts separate entries of the source, which are not always exact repeats. Equal entries are not always repeated. “Also recorded” adds a separate entry of the source. Where two headings read alike, the source gives them in different places.
Key:
mouse A2A receptor [1] = biological target: T1, mouse A2A receptor (Mus musculus, UniProt Q60613); settings: cited from earlier work
human A2A receptor [2] = biological target: T2, human A2A receptor (Homo sapiens, UniProt P29274); design: Karl-Norbert Klotz (Universität Würzburg); host or cells: CHO-K1; settings: cited from earlier work
T2 sequence (P29274 whole entry): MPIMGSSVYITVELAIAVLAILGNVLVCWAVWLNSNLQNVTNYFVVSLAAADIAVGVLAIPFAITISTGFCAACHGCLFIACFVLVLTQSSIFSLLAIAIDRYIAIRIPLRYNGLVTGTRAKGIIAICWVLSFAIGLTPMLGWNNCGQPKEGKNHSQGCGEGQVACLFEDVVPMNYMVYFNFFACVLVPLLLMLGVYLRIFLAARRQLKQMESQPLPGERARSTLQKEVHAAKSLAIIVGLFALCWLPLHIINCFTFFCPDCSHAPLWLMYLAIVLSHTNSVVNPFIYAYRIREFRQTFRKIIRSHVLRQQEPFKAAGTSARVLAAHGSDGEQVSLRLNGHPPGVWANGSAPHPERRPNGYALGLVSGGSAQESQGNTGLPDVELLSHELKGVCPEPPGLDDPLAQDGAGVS

[3] = Extended single-dose toxicity study in rats; format: in vivo; settings: for systemic toxicity Effect/Organ, female: female rats; for systemic toxicity Effect/Organ, male: male rats
mouse A2A receptor [4] = biological target: T1, mouse A2A receptor; assay: In vitro autoradiography with [18F]FLUDA on mouse brain cryosections; settings: KD mouse striatum, autoradiography, homologous competition of [18F]FLUDA with FLUDA
Description: (§1) Biological evaluation – All animal studies followed the international guidelines of animal care and were
(§2) approved by Landesdirektion Leipzig, the local authority for animal care (Reg.-Nr.: TVV 18/18;
(§3) The animal experiments were performed with female CD-1
(§4) mice (n = 23, 10-12 weeks, 26-38 g) obtained from the Medizinisch-Experimentelles Zentrum (MEZ)
(§5) at Universität Leipzig (Leipzig; Germany) and female piglets (n = 2, 6-12 weeks old, 14-18 kg) obtained
(§6) from the Lehr- und Versuchsgut of the Faculty of Veterinary Medicine at Universität Leipzig (LVG;
(§7) In vitro autoradiography – Binding studies on brain sections were performed as previously
(§8) described.[9] Brains of CD-1 mice frozen in isopentane were cut using a cryostat (MICROM HM560;
(§9) Fisher Scientific GmbH; Schwerte; Germany), thaw-mounted onto microscope slides, and after air-
(§10) drying stored at - 80 °C until use. The brain sections were dried in a stream of cold air, and pre-incubated
(§11) in 50 mM TRIS-HCl buffer (pH 7.4, 100 mM NaCl, 5 mM MgCl2, 1 mM EDTA) containing 1 µU/mL
(§12) Afterwards, brain sections were incubated with approx..
(§13) 1 MBq/mL of [18F]FLUDA in buffer for 90 min at room temperature. Non-specific binding was determined in the presence of 10 μM ZM241385. Displacement of [18F]FLUDA was also evaluated
(§14) Subsequently, the sections were washed twice for
(§15) 5 min in ice-cold TRIS-HCl buffer, and dipped for 5 s in ice-cold deionized water. The sections were
(§16) rapidly dried in a stream of cold air before being exposed overnight on an imaging plate. Developed
(§17) autoradiographs were analysed in a phosphor imager (HD-CR 35; Duerr NDT GmbH; Bietigheim-
(§18) Bissingen; Germany). The quantification was performed by using 2D-densitometric analysis (AIDA
Further data analysis was
(§19) performed with GraphPad Prism 4.1 (GraphPad Inc.; La Jolla; CA).

human A2A receptor [5] = biological target: T2, human A2A receptor; assay: biochemical
Description: (§20) In vitro binding assays – Binding assays were performed as previously described.[8] CHO-K1 cells
(§21) stably transfected with the human A 1 receptor or A2A receptor, were donated by Prof. Karl -Norbert Klotz
(§22) (Institute of Pharmacology and Toxicology, Universität Würzburg; Würzburg; Germany) were cultured
(§23) in DMEM/F12 medium supplemented with 15 mM HEPES, 10% FCS, 1% L -Glutamine, 1%
(§24) harvested by scraping followed by centrifugation (800 rpm, 5 min), and the resulting pellet incubated in
(§25) 50 mM TRIS-HCl buffer (pH 7.4, 100 mM NaCl, 5 mM MgCl 2, 1 mM EDTA) on ice for 20 min. The
(§26) crude membrane homogenate was obtained by centrifugation (15,000 rpm, 30 min, 4 °C), suspended in
(§27) the A2A receptor and [3H]DPCPX for the A1 receptor. For the determination of A2A receptor and A1
(§28) receptor binding affinity of reference compounds, frozen cell suspensions were thawed, homogenized
(§29) by a 27-gauge needle, and diluted with 50 mM TRIS-HCl buffer containing 1 µU/mL adenosine
(§30) Non-specific binding was determined by co -
(§31) incubation with 10 μM ZM241385 or 1 μM DPCPX. The incubation was performed at RT for 90 min
(§32) and terminated by rapid filtration using Whatman GF/B glass-fibre filters, presoaked in 0.3% […]
(§33) radioactivity was quantified by liquid scintillation counting. […]
(§34) concentrations (n≥7) in triplicate. The IC50 values were determined by non -linear regression analysis […]

piglet A2A receptor [6] = biological target: T3, piglet A2A receptor (Sus scrofa, UniProt K9IW67); assay: In vitro autoradiography with [18F]FLUDA on pig brain cryosections
T3 sequence (K9IW67 1-409): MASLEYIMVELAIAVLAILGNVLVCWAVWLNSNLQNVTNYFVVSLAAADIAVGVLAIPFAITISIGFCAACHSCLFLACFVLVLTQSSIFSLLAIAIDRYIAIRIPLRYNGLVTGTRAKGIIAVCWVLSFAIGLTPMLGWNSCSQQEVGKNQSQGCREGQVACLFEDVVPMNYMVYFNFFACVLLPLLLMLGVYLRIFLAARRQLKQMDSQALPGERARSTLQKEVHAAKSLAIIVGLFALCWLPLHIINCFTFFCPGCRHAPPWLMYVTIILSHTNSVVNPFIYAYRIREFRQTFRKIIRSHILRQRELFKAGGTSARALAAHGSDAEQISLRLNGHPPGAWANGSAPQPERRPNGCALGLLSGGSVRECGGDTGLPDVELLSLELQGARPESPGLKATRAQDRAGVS
Description: as §1, §2, §3, §4, §5, §6, §7, §8, §9, §10, §11, §12, §13, §14, §15, §16, §17, §18
Further data analysis was
as §19

human A1 receptor = biological target: T4, human A1 receptor (Homo sapiens, UniProt P30542); assay: Competitive radioligand binding assay, human A1 receptor (CHO cell membranes, [3H]DPCPX)
T4 sequence (P30542 1-326): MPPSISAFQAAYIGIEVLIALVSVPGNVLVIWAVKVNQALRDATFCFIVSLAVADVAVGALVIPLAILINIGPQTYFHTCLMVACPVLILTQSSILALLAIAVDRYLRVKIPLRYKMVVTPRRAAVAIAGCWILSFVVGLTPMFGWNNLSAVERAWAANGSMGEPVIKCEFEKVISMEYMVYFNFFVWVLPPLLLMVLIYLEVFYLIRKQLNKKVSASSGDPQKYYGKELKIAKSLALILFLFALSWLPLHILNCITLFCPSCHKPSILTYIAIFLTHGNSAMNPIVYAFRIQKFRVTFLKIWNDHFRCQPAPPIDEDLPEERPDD
Description: as §20, §21, §22, §23, §24, §25, §26, §27, §28, §29, §30, §31, §32, §33, §34

piglet A2A receptor [7] = biological target: T3, piglet A2A receptor; design: method as in earlier work; settings: autoradiographic study; ref [20] (supplement); cited from earlier work

T1 sequence (Q60613 whole entry): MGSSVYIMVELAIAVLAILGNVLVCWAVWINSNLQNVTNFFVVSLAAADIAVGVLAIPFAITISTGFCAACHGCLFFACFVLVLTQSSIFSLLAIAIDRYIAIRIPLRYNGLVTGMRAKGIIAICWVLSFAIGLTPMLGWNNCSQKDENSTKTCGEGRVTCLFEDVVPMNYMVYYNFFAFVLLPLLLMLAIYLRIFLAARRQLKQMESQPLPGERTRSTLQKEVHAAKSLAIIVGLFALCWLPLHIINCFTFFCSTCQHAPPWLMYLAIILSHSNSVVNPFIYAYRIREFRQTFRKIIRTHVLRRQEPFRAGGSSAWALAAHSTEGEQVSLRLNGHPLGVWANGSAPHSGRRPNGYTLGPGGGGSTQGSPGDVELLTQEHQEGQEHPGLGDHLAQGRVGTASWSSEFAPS

Nc1nc2c(cnn2CCCc2ccc(OCCF)cc2)c2nc(-c3ccco3)nn12 [FESCH]
Kd (mouse A2A receptor [1]; autoradiographic study versus [18F]FESCH, ref [8], this paper (supplement)): 4.69 ± 1.17 nM | Kd (mouse A2A receptor [1]): ~5 nM | Ki (human A2A receptor [2]): ~1 nM | Ki (human A2A receptor [2]; versus [3H]CGS21680, ref [7] (supplement)): 12.4 nM | Ki (human A2A receptor [2]; versus [3H]ZM241385, ref [8], this paper (supplement)): 0.6 ± 0.1 nM

[2H]C([2H])(F)C([2H])([2H])Oc1ccc(CCCn2ncc3c2nc(N)n2nc(-c4ccco4)nc32)cc1 [FLUDA, 7-(3-(4-(2-Fluoroethoxy-1,1,2,2-d4)phenyl)propyl)-2-(furan-2-yl)-7H-pyrazolo-[4,3-e][1,2,4]triazolo[1,5-c]pyrimidin-5-amine]
systemic toxicity Effect/Organ, female ([3]; 6 µg/kg bw i.v.): No significant effects | systemic toxicity Effect/Organ, female ([3]; 30 µg/kg bw i.v.): No significant effects | systemic toxicity Effect/Organ, male ([3]; 6 µg/kg bw i.v.): decrease in blood glucose on day 2, non-adverse, not toxicological significant | systemic toxicity Effect/Organ, male ([3]; 30 µg/kg bw i.v.): decrease in blood glucose on day 2, non-adverse, not toxicological significant | single-dose toxicity findings (hematology, clinical chemistry, necropsy, histopathology) ([3]; rats, single i.v. bolus up to 30 μg/kg body weight): no adverse effects; also recorded: did not cause any conspicuous features | Kd (mouse A2A receptor [4]): 4.3 nM and ~4 nM | Ki (human A2A receptor [5]): ~1 nM | Bmax pig striatum (piglet A2A receptor [6]; autoradiography, homologous competition, single experiment): 218 fmol/mg wet weight | Kd (piglet A2A receptor [6]; read-out: KD pig striatum, autoradiography, homologous competition, single experiment): 0.68 nM | Ki (human A1 receptor): > 1000 nM

Nc1nc(NCCc2ccc(O)cc2)nc2nc(-c3ccco3)nn12 [ZM241385]
Kd (piglet A2A receptor [7]): 1.8 nM | blocking of [18F]FLUDA binding in pig brain slices (piglet A2A receptor [6]; co-administration of 10 μM): completely blocked
